From patent US20260365670A1, “EGFR INHIBITORS AND USES THEREOF” (DIZAL (JIANGSU) PHARMACEUTICAL CO., LTD., priority 2022, published 2026)
Where two headings read alike, the source gives them in different places.

Tests used:
[1] = target: T1, EGFR Exon19Del (Homo sapiens, UniProt P00533, DEL746-750); experiment: Inhibition of EGFR Exon19Del biochemical enzymatic activity (HTRF); details: read-out: IC50 @Del19
T1 construct: purchased Carna Bio
Summary of the method: (§1)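 Enzyme preincubated with compound, then ATP (1 mM) and TK substrate-biotin (1 μM) added; 1 h RT; stopped with EDTA-containing detection mix; HTRF read (ex 320, em 615/665 nm); IC50 by 4-parameter logistic fit.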

[2] = tested on: Ba/F3 cells expressing EGFR mutations; experiment: Cell proliferation assay, Ba/F3 cells expressing EGFR mutations (CellTiter-Glo, 72 hours); assay type: cell-based
Summary of the method: (§2)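 In RPMI1640 medium (PC-9 with 10% FBS), each cell line was seeded at its own density: Ba/F3 5000 and PC-9 500 per well. A compound series was added the next day, with a time-zero viability plate read in parallel. Percent proliferation was subtracted for G0 and referenced to DMSO, and GI50 was derived by curve fitting.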

[3] = target: T2, EGFR[T790M/C797S/d746-750] (Homo sapiens, UniProt P00533, C797S/DEL746-750/T790M); experiment: Inhibition of EGFR[T790M/C797S/d746-750] biochemical enzymatic activity (HTRF)
T2 construct: purchased Carna Bio
Summary of the method: as §1

[4] = target: T3, EGFR[T790M/C797S/L858R] (Homo sapiens, UniProt P00533, C797S/L858R/T790M); experiment: Inhibition of EGFR[T790M/C797S/L858R] biochemical enzymatic activity (HTRF); details: 1 mM ATP
T3 construct: purchased Carna Bio
Summary of the method: as §1

[5] = tested on: PC-9; experiment: Cell proliferation assay, PC-9 cells (CellTiter-Glo, 72 hours); assay type: cell-based; details: PC9 cells
Summary of the method: as §2

[6] = target: T4, EGFR (C797S L858R) (Homo sapiens, UniProt P00533, C797S/L858R); experiment: Inhibition of EGFR (C797S L858R) biochemical enzymatic activity (HTRF); details: 1 mM ATP
T4 construct: purchased signalchem
Summary of the method: as §1

[7] = target: T5, EGFR wild type (Homo sapiens, UniProt P00533); experiment: Inhibition of EGFR wild type biochemical enzymatic activity (HTRF); details: 1 mM ATP
T5 construct: purchased Carna Bio
T5 sequence (P00533 25-1210): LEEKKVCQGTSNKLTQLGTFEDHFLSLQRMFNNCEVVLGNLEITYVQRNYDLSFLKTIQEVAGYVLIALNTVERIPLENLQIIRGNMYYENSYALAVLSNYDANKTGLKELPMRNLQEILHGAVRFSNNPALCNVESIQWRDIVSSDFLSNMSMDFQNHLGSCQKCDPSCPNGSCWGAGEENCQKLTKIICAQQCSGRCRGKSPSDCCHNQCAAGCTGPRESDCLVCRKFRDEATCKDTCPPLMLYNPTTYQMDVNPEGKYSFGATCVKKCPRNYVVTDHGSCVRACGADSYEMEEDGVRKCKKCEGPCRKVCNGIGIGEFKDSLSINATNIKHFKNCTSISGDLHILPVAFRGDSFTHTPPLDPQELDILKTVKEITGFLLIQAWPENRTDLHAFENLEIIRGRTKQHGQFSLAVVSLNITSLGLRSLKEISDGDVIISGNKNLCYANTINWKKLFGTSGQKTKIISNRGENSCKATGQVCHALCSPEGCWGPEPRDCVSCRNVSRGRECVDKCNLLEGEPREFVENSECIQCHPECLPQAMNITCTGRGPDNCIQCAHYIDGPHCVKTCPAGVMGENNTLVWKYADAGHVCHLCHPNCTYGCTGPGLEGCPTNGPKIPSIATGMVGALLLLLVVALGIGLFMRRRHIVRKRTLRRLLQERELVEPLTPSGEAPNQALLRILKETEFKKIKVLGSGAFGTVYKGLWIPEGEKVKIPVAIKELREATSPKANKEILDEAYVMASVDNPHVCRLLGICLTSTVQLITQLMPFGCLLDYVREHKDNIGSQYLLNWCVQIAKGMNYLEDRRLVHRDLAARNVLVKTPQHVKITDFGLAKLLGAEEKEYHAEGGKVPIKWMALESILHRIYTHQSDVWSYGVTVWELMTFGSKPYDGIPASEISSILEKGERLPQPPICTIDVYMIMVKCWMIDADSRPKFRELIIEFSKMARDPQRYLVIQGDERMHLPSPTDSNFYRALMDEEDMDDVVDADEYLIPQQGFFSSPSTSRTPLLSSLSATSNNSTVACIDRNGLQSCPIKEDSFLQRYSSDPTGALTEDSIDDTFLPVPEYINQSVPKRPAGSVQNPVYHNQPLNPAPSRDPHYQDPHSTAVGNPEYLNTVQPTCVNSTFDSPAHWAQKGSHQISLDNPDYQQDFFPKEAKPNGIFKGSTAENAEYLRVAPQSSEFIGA
Summary of the method: as §1

[8] = target: T6, EGFR L858R (Homo sapiens, UniProt P00533, L858R); experiment: Inhibition of EGFR L858R biochemical enzymatic activity (HTRF); details: 1 mM ATP
T6 construct: purchased Carna Bio
T6 sequence (P00533 25-1210 L858R): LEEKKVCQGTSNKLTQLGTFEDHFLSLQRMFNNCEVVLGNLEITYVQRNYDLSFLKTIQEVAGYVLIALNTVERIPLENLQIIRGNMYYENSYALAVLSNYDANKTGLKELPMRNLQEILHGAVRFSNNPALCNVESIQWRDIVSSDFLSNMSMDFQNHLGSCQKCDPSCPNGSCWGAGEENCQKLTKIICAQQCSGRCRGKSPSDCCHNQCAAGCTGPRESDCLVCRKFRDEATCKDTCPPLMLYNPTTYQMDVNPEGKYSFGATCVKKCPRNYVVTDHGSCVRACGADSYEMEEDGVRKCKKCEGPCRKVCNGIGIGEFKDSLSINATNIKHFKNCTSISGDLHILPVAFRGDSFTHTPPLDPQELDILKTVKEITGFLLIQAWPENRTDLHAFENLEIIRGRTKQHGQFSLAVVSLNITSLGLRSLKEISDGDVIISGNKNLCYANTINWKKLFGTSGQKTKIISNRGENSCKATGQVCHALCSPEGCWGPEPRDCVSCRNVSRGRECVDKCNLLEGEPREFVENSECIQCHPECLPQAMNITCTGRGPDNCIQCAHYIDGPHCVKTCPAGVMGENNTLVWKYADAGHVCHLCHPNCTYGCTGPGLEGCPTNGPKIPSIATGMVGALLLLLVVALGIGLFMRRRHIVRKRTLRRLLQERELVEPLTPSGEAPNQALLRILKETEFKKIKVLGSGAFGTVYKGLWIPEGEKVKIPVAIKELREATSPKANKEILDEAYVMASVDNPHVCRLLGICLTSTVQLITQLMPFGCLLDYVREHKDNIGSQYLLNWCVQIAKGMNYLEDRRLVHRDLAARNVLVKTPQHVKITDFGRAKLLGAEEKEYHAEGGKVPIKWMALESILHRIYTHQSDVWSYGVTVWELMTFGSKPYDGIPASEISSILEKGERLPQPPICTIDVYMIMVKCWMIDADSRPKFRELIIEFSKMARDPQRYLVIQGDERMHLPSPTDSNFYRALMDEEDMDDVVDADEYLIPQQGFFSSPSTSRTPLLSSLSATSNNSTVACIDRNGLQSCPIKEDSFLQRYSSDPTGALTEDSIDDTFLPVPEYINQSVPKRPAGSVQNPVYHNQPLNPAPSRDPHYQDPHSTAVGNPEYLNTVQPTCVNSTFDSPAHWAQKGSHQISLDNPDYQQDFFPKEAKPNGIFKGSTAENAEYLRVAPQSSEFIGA
Summary of the method: as §1

[9] = target: T7, EGFR Exon19Del/T790M (Homo sapiens, UniProt P00533, DEL746-750/T790M); experiment: Inhibition of EGFR Exon19Del/T790M biochemical enzymatic activity (HTRF); details: 1 mM ATP
T7 construct: purchased Carna Bio
Summary of the method: as §1

[10] = target: T8, EGFR L858R/T790M (Homo sapiens, UniProt P00533, L858R/T790M); experiment: Inhibition of EGFR L858R/T790M biochemical enzymatic activity (HTRF); details: 1 mM ATP
T8 construct: purchased Carna Bio
T8 sequence (P00533 25-1210 T790M/L858R): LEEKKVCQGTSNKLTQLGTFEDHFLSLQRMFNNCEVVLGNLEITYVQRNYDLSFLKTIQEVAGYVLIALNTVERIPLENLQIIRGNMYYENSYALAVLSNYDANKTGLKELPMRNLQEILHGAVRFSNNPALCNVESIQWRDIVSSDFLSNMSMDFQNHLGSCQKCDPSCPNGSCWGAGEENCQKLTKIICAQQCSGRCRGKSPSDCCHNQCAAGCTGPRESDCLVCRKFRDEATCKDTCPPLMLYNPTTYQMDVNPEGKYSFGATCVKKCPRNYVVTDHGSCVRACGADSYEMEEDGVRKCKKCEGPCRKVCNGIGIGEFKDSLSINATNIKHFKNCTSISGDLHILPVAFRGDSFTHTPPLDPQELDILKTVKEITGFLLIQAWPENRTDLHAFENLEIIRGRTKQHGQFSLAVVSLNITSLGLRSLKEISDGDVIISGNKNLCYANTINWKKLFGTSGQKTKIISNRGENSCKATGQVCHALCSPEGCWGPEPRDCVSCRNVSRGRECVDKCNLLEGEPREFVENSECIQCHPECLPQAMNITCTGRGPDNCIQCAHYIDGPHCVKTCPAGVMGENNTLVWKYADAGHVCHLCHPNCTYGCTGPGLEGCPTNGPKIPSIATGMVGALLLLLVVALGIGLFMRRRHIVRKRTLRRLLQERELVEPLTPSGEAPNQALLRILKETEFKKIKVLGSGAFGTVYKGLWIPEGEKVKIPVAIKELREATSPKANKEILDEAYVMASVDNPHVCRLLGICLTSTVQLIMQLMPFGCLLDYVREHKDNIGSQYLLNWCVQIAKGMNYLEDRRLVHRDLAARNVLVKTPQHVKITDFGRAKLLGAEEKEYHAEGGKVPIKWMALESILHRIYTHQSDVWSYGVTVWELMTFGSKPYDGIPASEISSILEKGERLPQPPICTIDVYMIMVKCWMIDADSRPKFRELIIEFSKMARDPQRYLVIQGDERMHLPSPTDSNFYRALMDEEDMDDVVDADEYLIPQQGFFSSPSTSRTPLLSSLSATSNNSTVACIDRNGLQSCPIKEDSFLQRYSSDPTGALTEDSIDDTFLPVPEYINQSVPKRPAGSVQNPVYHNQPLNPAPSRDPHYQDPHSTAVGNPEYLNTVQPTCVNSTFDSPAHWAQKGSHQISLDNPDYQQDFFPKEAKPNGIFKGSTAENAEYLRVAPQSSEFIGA
Summary of the method: as §1

[11] = target: T9, EGFR (d746-750 C797S) (Homo sapiens, UniProt P00533, C797S/DEL746-750); experiment: Inhibition of EGFR (d746-750 C797S) biochemical enzymatic activity (HTRF); details: 1 mM ATP
T9 construct: purchased signalchem
T9 sequence (P00533 with tags, fused parts or gaps DEL746-750/C797S limits assumed): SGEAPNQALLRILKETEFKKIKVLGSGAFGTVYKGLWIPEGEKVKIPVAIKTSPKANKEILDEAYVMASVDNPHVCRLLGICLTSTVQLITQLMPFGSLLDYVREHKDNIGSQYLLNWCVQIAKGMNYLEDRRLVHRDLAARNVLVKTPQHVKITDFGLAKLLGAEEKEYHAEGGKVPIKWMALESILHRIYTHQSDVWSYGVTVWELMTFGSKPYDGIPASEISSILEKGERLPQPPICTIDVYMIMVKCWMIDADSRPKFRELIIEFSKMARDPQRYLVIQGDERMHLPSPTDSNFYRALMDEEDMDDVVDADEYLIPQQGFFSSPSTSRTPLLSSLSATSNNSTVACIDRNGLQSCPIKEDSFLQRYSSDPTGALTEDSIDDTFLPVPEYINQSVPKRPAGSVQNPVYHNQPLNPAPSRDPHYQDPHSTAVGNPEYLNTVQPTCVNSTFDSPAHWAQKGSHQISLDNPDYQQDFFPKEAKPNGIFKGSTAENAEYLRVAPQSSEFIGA
Summary of the method: as §1

[12] = EGFR Del19, 1 mM ATP, 1 h, room temperature
[13] = EGFR T790M-C797S-Del19, 1 mM ATP, 1 h, room temperature, read-out: IC50 (nM) @T790M - C797S - Del19
[14] = EGFR T790M-C797S-L858R, 1 h, room temperature, read-out: IC50 (nM) @T790M- C797S - L858R
[15] = EGFR L858-C797S, 1 h, room temperature, read-out: IC50 (nM) @L858-C797S
[16] = EGFR WT, 1 h, room temperature, read-out: IC50 (nM) @WT
[17] = 1 h, room temperature, read-out: IC50 (nM) @L858R
[18] = EGFR Del19-T790M, 1 h, room temperature, read-out: IC50 (nM) @Del19-T790M
[19] = EGFR L858R-T790M, 1 h, room temperature, read-out: IC50 (nM) @L858R-T790M
[20] = EGFR Del19-C797S, 1 h, room temperature, read-out: IC50 (nM) @Del19-C797S
[21] = EGFR Exon19Del, 1 mM ATP, 1 h at room temperature
[22] = EGFR[T790M/C797S/d746-750], 1 mM ATP, 1 h at room temperature, read-out: IC50 @T790M - C797S - Del19
[23] = EGFR[T790M/C797S/L858R], 1 h at room temperature, read-out: IC50 @T790M- C797S - L858R
[24] = EGFR (C797S L858R), 1 h at room temperature, read-out: IC50 @L858-C797S
[25] = EGFR wild type, 1 h at room temperature, read-out: IC50 @WT
[26] = 1 h at room temperature, read-out: IC50 @L858R
[27] = EGFR Exon19Del/T790M, 1 h at room temperature, read-out: IC50 @Del19-T790M
[28] = EGFR L858R/T790M, 1 h at room temperature, read-out: IC50 @L858R-T790M
[29] = EGFR (d746-750 C797S), 1 h at room temperature, read-out: IC50 @Del19-C797S

T1 sequence (P00533 with tags, fused parts or gaps DEL746-750 limits assumed): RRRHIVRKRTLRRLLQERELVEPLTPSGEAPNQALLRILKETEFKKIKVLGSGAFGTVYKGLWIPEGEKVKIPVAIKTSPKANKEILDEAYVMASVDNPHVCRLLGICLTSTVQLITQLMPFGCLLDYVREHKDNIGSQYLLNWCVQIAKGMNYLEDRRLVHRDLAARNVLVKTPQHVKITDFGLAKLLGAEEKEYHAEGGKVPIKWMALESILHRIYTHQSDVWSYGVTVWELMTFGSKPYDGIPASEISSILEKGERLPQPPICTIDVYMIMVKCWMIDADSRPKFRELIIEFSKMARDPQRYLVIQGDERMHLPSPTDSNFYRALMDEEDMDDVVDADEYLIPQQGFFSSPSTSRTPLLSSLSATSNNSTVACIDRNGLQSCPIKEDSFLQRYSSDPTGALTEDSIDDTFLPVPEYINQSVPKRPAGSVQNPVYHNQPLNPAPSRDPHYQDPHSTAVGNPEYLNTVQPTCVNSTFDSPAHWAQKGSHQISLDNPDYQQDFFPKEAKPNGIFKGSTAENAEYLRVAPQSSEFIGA

Compound	IC50 [1, 12] [nM]	IC50 [3, 13] [nM]	IC50 [4, 14] [nM]	IC50 [6, 15] [nM]	IC50 [7, 16] [nM]	IC50 [8, 17] [nM]	IC50 [9, 18] [nM]	IC50 [10, 19] [nM]	IC50 [11, 20] [nM]	IC50 [1, 21] [nM]	IC50 [3, 22] [nM]	IC50 [4, 23] [nM]	IC50 [6, 24] [nM]	IC50 [7, 25] [nM]	IC50 [8, 26] [nM]	IC50 [9, 27] [nM]	IC50 [10, 28] [nM]	IC50 [11, 29] [nM]	other results
CN(C)CCC1CN(c2ccc3nc4n(c3c2)C23CCC(CN(CCOc5c(cnn5C)-c5cc(cn(C)c5=O)C(=O)N4)C2)C3)C1 (single isomer, unassigned) [Example A95B]	1.7	2.7	3.3	4.7	55	7	3.1	3.7	1.5	–	–	–	–	–	–	–	–	–	GI50 ([2]; Mus musculus, BaF3, 72 h, BaF3 cells, EGFR DEL19-C797S, CellTiter-Glo, read-out: DEL19-C797S/BaF3 GI50): 95 nM; GI50 ([2]; Mus musculus, BaF3, 72 h, BaF3 cells, EGFR DEL19-T790-C797S, CellTiter-Glo, read-out: DEL19-T790-C797S/BaF3 GI50): 228 nM; GI50 ([2]; Mus musculus, BaF3, 72 h, BaF3 cells, EGFR L858R, CellTiter-Glo, read-out: L858R/BaF3 GI50): 357 nM; GI50 ([2]; Mus musculus, BaF3, 72 h, BaF3 cells, EGFR L858R-C797S, CellTiter-Glo, read-out: L858R-C797S/BaF3 GI50): 436 nM; GI50 ([2]; Mus musculus, BaF3, 72 h, BaF3 cells, EGFR L858R-T790-C797S, CellTiter-Glo, read-out: L858R-T790-C797S/BaF3 GI50): 574 nM; GI50 ([2]; Mus musculus, BaF3, 72 h, BaF3 cells, EGFR L858R-T790M, CellTiter-Glo, read-out: L858R-T790M/BaF3 GI50): 1080 nM; GI50 ([2]; Mus musculus, BaF3, 72 h, EGFR DEL19-T790M, CellTiter-Glo, read-out: DEL19-T790M GI50): 177 nM; GI50 ([5]; Homo sapiens, PC-9, 72 h, CellTiter-Glo, read-out: PC9 GI50): 2460 nM
Cc1cc2cc(n1)-c1cnn(C)c1OCCN1CC3CCC(C3)(C1)n1c(nc3ccc(N(C)CCN(C)C)cc31)NC2=O (single isomer, unassigned) [Example B47A]	–	–	–	–	–	–	–	–	–	4170	1820	> 5000	> 5000	> 5000	> 5000	4260	> 5000	3460	GI50 ([2]; BaF3 cells, EGFR DEL19 - C797S, read-out: GI50 DEL19 - C797S/BaF3): 371 nM; GI50 ([2]; BaF3 cells, EGFR DEL19 - T790-C797S, read-out: GI50 DEL19 - T790-C797S/BaF3): 500 nM; GI50 ([2]; BaF3 cells, EGFR L858R - C797S, read-out: GI50 L858R - C797S/BaF3): 721 nM; GI50 ([2]; BaF3 cells, EGFR L858R - T790-C797S, read-out: GI50 L858R - T790-C797S/BaF3): 97 nM; GI50 ([2]; BaF3 cells, EGFR L858R - T790M, read-out: GI50 L858R - T790M/BaF3): 380 nM; GI50 ([2]; BaF3 cells, EGFR L858R, read-out: GI50 L858R/BaF3): 2990 nM; GI50 ([2]; EGFR DEL19 - T790M, read-out: GI50 DEL19 - T790M): 417 nM; GI50 ([5]; read-out: GI50 PC9): 2260 nM
Cc1cc2cc(n1)-c1cnn(C)c1OCCN1CC3CCC(C3)(C1)n1c(nc3ccc(N4CCN(C)CC4)cc31)NC2=O (single isomer, unassigned) [Example B9A, 15,21-Dimethyl-5-(4-methylpiperazin-1-yl)-23-oxa-2,9,11,16,20,21,26-heptaazaheptacyclo[24.4.1.1^{1,28}.1^{13,17}.0^{2,10}.0^{3,8}.0^{18,22}]tritriaconta-3,5,7,9,13,15,17(33),18(22),19-nonaen-12-one]	–	–	–	–	–	–	–	–	–	432	245	> 5000	> 5000	> 5000	> 5000	1070	> 5000	454	GI50 ([2]; Mus musculus, BaF3, 72 h, BaF3 cells, EGFR DEL19 - C797S, read-out: GI50 DEL19 - C797S/BaF3): 83 nM; GI50 ([2]; Mus musculus, BaF3, 72 h, BaF3 cells, EGFR DEL19 - T790-C797S, read-out: GI50 DEL19 - T790-C797S/BaF3): 107 nM; GI50 ([2]; Mus musculus, BaF3, 72 h, BaF3 cells, EGFR L858R - C797S, read-out: GI50 L858R - C797S/BaF3): 386 nM; GI50 ([2]; Mus musculus, BaF3, 72 h, BaF3 cells, EGFR L858R - T790-C797S, read-out: GI50 L858R - T790-C797S/BaF3): 46 nM; GI50 ([2]; Mus musculus, BaF3, 72 h, BaF3 cells, EGFR L858R - T790M, read-out: GI50 L858R - T790M/BaF3): 253 nM; GI50 ([2]; Mus musculus, BaF3, 72 h, BaF3 cells, EGFR L858R, read-out: GI50 L858R/BaF3): 471 nM; GI50 ([2]; Mus musculus, BaF3, 72 h, EGFR DEL19 - T790M, read-out: GI50 DEL19 - T790M): 135 nM; GI50 ([5]; Homo sapiens, PC-9, 72 h, read-out: GI50 PC9): 438 nM
CN1CCC2CN(c3ccc4nc5n(c4c3)C34CCC(CN(CCOc6c(cnn6C)-c6cc(cn(C)c6=O)C(=O)N5)C3)C4)CC21 (single isomer, unassigned) [Example A79A]	1430	> 5000	> 5000	> 5000	> 5000	> 5000	> 5000	> 5000	1580	–	–	–	–	–	–	–	–	–	GI50 ([2]; BaF3 cells, EGFR DEL19-C797S, CellTiter-Glo, read-out: DEL19-C797S/BaF3 GI50): 251 nM; GI50 ([2]; BaF3 cells, EGFR DEL19-T790-C797S, CellTiter-Glo, read-out: DEL19-T790-C797S/BaF3 GI50): 999 nM; GI50 ([2]; BaF3 cells, EGFR L858R, CellTiter-Glo, read-out: L858R/BaF3 GI50): 990 nM; GI50 ([2]; BaF3 cells, EGFR L858R-C797S, CellTiter-Glo, read-out: L858R-C797S/BaF3 GI50): 360 nM; GI50 ([2]; BaF3 cells, EGFR L858R-T790-C797S, CellTiter-Glo, read-out: L858R-T790-C797S/BaF3 GI50): 1910 nM; GI50 ([2]; BaF3 cells, EGFR L858R-T790M, CellTiter-Glo, read-out: L858R-T790M/BaF3 GI50): 1120 nM; GI50 ([2]; EGFR DEL19-T790M, CellTiter-Glo, read-out: DEL19-T790M GI50): 882 nM; GI50 ([5]; CellTiter-Glo, read-out: PC9 GI50): 993 nM
